Data published in patent publication US8778889B2, “Antimicrobial decapeptide oral hygiene treatment” (The United States of America as represented by the …, priority 2003, dated 2014).
Ends that are not written are not given here.

Legend:
[1] = test system: biofilms grown on saliva-coated HA surfaces; experiment: Live/Dead BacLight staining with confocal laser scanning microscopy of treated biofilms; assay type: cell-based, human salivary bacteria; settings: 66 h-old biofilms; KSL 200 μg/ml, Bzl 0.001%, CHX 0.12%
Description: (A) Effect of KSL on intact versus disrupted 45 h biofilms formed on saliva-coated HA disks by salivary bacteria using the in vitro plaque assay. A Mann-Whitney test was used for comparison of log reductions in CFU between the experimental groups (KSL-treated intact or disrupted biofilms) with the control groups (dH2O-treated intact or disrupted biofilms). The single asterisk represents a statistically significant difference between KSL and dH2O-treated intact biofilms (p<0.05). Likewise, double asterisks represent a statistically significant difference between KSL and dH2O-treated disrupted biofilms (p<0.01). […] (B) Effect of benzalkonium chloride in promoting the bactericidal activity of KSL against 66 h-old intact oral biofilms formed on saliva-coated HA disks using the in vitro plaque system. A Kruskal-Wallis test was used to compare log reductions in CFU among various treatment groups including the control group (dH2O-treated). The single asterisk represents a statistically significant difference between the combined treatment of KSL and benzalkonium chloride (Bzl) and dH2O (p<0.001), KSL (p<0.01), or Bzl (p<0.01)-treated intact biofilms. Double asterisks represent a statistically significant difference between CHX and dH2O (p<0.001) or Bzl (P<0.05)-treated intact biofilms. […] No significant difference in viability counts was observed between CHX-treated versus the combined use of KSL and Bzl. For (A) and (B), the data represent the determinations of one of three separate experiments, each performed in quadruplicate. Bars represent standard deviations. (C) Confocal images of control and treated biofilms grown on saliva-coated HA surfaces. Live/Dead BacLight™ Viability kit (Molecular Probes, Eugene, Oreg.) was used to assess the viability of biofilm cells exposed to different treatments. […] An excitation wavelength of 488 nm was used and the fluorescence light emitted was collected by two separate emission filters, 500-530 nm (SYTO 9, live), and 650-710 nm (propidium iodide, dead). […]

[2] = Description: The chewing gum formulations were prepared following a procedure described previously. The gum base was heated at a temperature between 50 and 60° C. for melting. When the gum base was of the proper fluid consistency, the KSL was added as a fine powder along with the other components. The temperature was kept constant while mixing the components with the gum base in a mortar. After mixing, the homogenous chewing gum mixture was extruded, cut into squares of approximate shape and size and hardened at room temperature overnight. The composition of the gum was as follows: 550 mg of gum base, 420 mg of sorbitol, 10 mg of mannitol, 10 mg of saccharin, and 10, 20 or 30 mg of KSL (total weight: approximately 1 g). In vitro release study of KSL from chewing gums was carried out using an in vitro chewing release apparatus consisting of two modules (AB FIA, Lund, Sweden) (FIG. 1). Each module consists of a thermostatted glass cell in which two vertically oriented pistons holding an upper and a lower chewing plate are mounted. The cells were filled with 40 ml of artificial saliva and the chewing gum was loaded onto the lower chewing surface. […] The released amount of KSL was determined by RP-HPLC.

Q: Which results are given for “KKVVFKVKFK-NH2 [KSL, Lys-Lys-Val-Val-Phe-Lys-Val-Lys-Phe-Lys-NH2]”?
A: viability of biofilm cells by live/dead staining [1]: less impact on the viability of biofilm cells; stability of KSL during the gum manufacturing process (HPLC of released KSL) [2]: remains stable
